Laboratory results from US8471004B2, “Bicyclic compounds” (Hoffman-La Roche Inc., priority 2009, dated 2013).

biological target: T1, human chemokine receptor 2 isoform B (Homo sapiens, UniProt P41597); assay: Calcium mobilization assay (CHOK1-CCR2B-A5 cells, FLIPR, MCP-1 stimulated); format: cell-based; conditions: Ca mobilisation assay for CCR2, antagonist activity, 50% inhibition of specific calcium increases after 20 nM MCP-1
T1 construct: host or cells: CHOK1-CCR2B-A5 (CHO-K1)
T1 sequence (P41597 1-360 isoform P41597-2): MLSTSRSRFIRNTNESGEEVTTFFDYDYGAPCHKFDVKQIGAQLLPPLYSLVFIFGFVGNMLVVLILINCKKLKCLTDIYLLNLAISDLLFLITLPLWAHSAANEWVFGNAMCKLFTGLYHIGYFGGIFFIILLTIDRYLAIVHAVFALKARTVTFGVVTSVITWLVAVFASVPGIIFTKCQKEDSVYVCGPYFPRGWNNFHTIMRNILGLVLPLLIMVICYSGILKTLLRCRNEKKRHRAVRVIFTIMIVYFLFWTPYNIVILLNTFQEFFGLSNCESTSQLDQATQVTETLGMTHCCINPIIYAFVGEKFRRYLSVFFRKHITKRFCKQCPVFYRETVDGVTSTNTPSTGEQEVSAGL
Protocol: CHOK1-CCR2B-A5 cells (from Euroscreen) stably overexpressing the human chemokine receptor 2 isoform B were cultured in Nutrient Hams F12 medium supplemented with 5% FBS, 100 U/ml penicillin, 100 μg/ml streptomycin, 400 μg/ml G418 and 5 μg/ml puromycin.
For the assay cells were grown overnight in 384-well black clear flat bottom polystyrene plates (Costar) at 37° C. at 5% CO2. After washing with DMEM, 20 mM Hepes, 2.5 mM probenecid, 0.1% BSA (DMEM assay buffer) cells were loaded with 4 μM Fluo-4 in the same DMEM assay buffer for 2 hours at 30° C. Excess dye was removed and cells were washed with DMEM assay buffer. 384-well compound plates were prepared with DMEM assay buffer/0.5% DMSO with or without various concentrations of test compounds. Usually compounds were tested for agonist and antagonist activity.
Test compounds were added to the assay plate and agonist activity was monitored as fluorescence for 80 seconds with a FLIPR (488 nm excitation; 510-570 nm emission; Molecular Devices). After 20-30 min. of incubation at 30° C., 20 nM MCP-1 (R&D; Roche) was added and fluorescence was monitored again for 80 seconds. Increases in intracellular calcium are reported as maximum fluorescence after agonist exposure minus basal fluorescence before exposure. Antagonist activity is indicated as inhibitor concentration required for 50% inhibition of specific calcium increases.

IC50 | SMILES
67.4 nM | C[C@H]1C(=O)N2[C@@H](CCCN3CCCC(F)(F)C3)CC[C@H]2CN1C(=O)Nc1ccc(Cl)c(Cl)c1 [Example 47, (3S,6S,8aS)-6-[3-(3,3-Difluoro-piperidin-1-yl)-propyl]-3-methyl-4-oxo-hexahydro-pyrrolo[1,2-a]pyrazine-2-carboxylic acid (3,4-dichloro-phenyl)-amide]
68.9 nM | C[C@H]1C(=O)N2[C@@H](CCN3CCC4(CC4)[C@H](O)C3)CO[C@@H]2CN1C(=O)Nc1cccc(C(F)(F)F)c1 [Example 9, (3S,6S,8aR)-3-[2-((S)-4-hydroxy-6-aza-spiro[2.5]oct-6-yl)-ethyl]-6-methyl-5-oxo-hexahydro-oxazolo[3,2-a]pyrazine-7-carboxylic acid (3-trifluoromethyl-phenyl)-amide]
67.9 nM | C[C@H]1C(=O)N2C(CN1C(=O)Nc1cccc(C(F)(F)F)c1)OC[C@@H]2CCN1CCC2(CC2)[C@H](O)C1 (stereo partly drawn) [Example 5, (3S,6S)-3-[2-((S)-4-Hydroxy-6-aza-spiro[2.5]oct-6-yl)-ethyl]-6-methyl-5-oxo-hexahydro-oxazolo[3,2-a]pyrazine-7-carboxylic acid (3-trifluoromethyl-phenyl)-amide]
26.4 nM | C[C@H]1C(=O)N2[C@@H](CCCN3CCC(F)(F)CC3)CC[C@H]2CN1C(=O)Nc1ccc(Cl)c(Cl)c1 [Example 46, (3S,6S,8aS)-6-[3-(4,4-Difluoro-piperidin-1-yl)-propyl]-3-methyl-4-oxo-hexahydro-pyrrolo[1,2-a]pyrazine-2-carboxylic acid (3,4-dichloro-phenyl)-amide]
2.1 nM | C[C@H]1C(=O)N2[C@@H](CCN3CCC4(CC4)[C@H](O)C3)COC[C@H]2CN1C(=O)Nc1ccc(C(F)(F)F)c(Cl)c1 [Example 32, (4S,7S,9aR)-4-[2-((S)-4-Hydroxy-6-aza-spiro[2.5]oct-6-yl)-ethyl]-7-methyl-6-oxo-hexahydro-pyrazino[2,1-c][1,4]oxazine-8-carboxylic acid (3-chloro-4-trifluoromethyl-phenyl)-amide]
146 nM | C[C@H]1C(=O)N2[C@@H](CCN3CCC4(CC4)[C@H](O)C3)CO[C@H]2CN1C(=O)Nc1cccc(C(F)(F)F)c1 [Example 8, (3S,6S,8aS)-3-[2-((S)-4-Hydroxy-6-aza-spiro[2.5]oct-6-yl)-ethyl]-6-methyl-5-oxo-hexahydro-oxazolo[3,2-a]pyrazine-7-carboxylic acid (3-trifluoromethyl-phenyl)-amide]
5.8 nM | C[C@H]1C(=O)N2[C@@H](CCN3CCC4(CC4)[C@H](O)C3)CO[C@H]2CN1C(=O)Nc1ccc(Cl)c(Cl)c1 [Example 1, (3S,6S,8aS)-3-[2-((S)-4-Hydroxy-6-aza-spiro[2.5]oct-6-yl)-ethyl]-6-methyl-5-oxo-hexahydro-oxazolo[3,2-a]pyrazine-7-carboxylic acid (3,4-dichloro-phenyl)-amide]
189 nM | C[C@H]1C(=O)N2[C@@H](CCN3CCS(=O)(=O)CC3)COC[C@H]2CN1C(=O)Nc1ccc(C(F)(F)F)c(Cl)c1 [Example 59, (4S,7S,9aR)-4-[2-(1,1-Dioxo-6-thiomorpholin-4-yl)-ethyl]-7-methyl-6-oxo-hexahydro-pyrazino[2,1-c][1,4]oxazine-8-carboxylic acid (3-chloro-4-trifluoromethyl-phenyl)-amide]
360 nM | C[C@H]1C(=O)N2[C@@H](CCC(=O)N3CCC4(CC4)[C@H](O)C3)COC2(C)CN1C(=O)Nc1ccc(C(F)(F)F)c(Cl)c1 (stereo partly drawn) [Example 37, (3S,6S)-3-[3-((S)-4-Hydroxy-6-aza-spiro[2.5]oct-6-yl)-3-oxo-propyl]-6,8a-dimethyl-5-oxo-hexahydro-oxazolo[3,2-a]pyrazine-7-carboxylic acid (3-chloro-4-trifluoromethyl-phenyl)-amide]
14.3 nM | C[C@H]1C(=O)N2[C@@H](CCC(=O)N3CCC4(CC4)[C@H](O)C3)CCC[C@H]2CN1C(=O)Nc1ccc(C(F)(F)F)c(Cl)c1 [Example 64, (3S,6R,9aS)-6-[3-((S)-4-Hydroxy-6-aza-spiro[2.5]oct-6-yl)-3-oxo-propyl]-3-methyl-4-oxo-octahydro-pyrido[1,2-a]pyrazine-2-carboxylic acid (3-chloro-4-trifluoromethyl-phenyl)-amide]
414 nM | C[C@H]1C(=O)N2[C@@H](CCN3CCS(=O)(=O)CC3)COC[C@H]2CN1C(=O)Nc1ccc(Cl)c(Cl)c1 [Example 58, (4S,7S,9aR)-4-[2-(1,1-Dioxo-thiomorpholin-4-yl)-ethyl]-7-methyl-6-oxo-hexahydro-pyrazino[2,1-c][1,4]oxazine-8-carboxylic acid (3,4-dichloro-phenyl)-amide]
34.1 nM | C[C@H]1C(=O)N2[C@@H](CCCN3CCC4(CC4)C(F)(F)C3)COC[C@H]2CN1C(=O)Nc1ccc(C(F)(F)F)c(Cl)c1 [Example 61, (4S,7S,9aR)—N-(3-chloro-4-(trifluoromethyl)phenyl)-4-(3-(4,4-difluoro-6-azaspiro[2.5]octan-6-yl)propyl)-7-methyl-6-oxohexahydropyrazino[2,1-c][1,4]oxazine-8(1H)-carboxamide]
60.4 nM | C[C@H]1C(=O)N2C(CN1C(=O)Nc1cccc(Cl)c1)OC[C@@H]2CCN1CCC2(CC2)[C@H](O)C1 (stereo partly drawn) [Example 3, (3S,6S)-3-[2-((S)-4-Hydroxy-6-aza-spiro[2.5]oct-6-yl)-ethyl]-6-methyl-5-oxo-hexahydro-oxazolo[3,2-a]pyrazine-7-carboxylic acid (3-chloro-phenyl)-amide]
7.4 nM | C[C@H]1C(=O)N2C(CN1C(=O)Nc1ccc(Cl)c(Cl)c1)OC[C@@H]2CCCN1CCC2(CC2)[C@H](O)C1 (stereo partly drawn) [Example 16, (3S,6S)-3-[3-((S)-4-Hydroxy-6-aza-spiro[2.5]oct-6-yl)-propyl]-6-methyl-5-oxo-hexahydro-oxazolo[3,2-a]pyrazine-7-carboxylic acid (3,4-dichloro-phenyl)-amide]
3.8 nM | C[C@H]1C(=O)N2[C@@H](CCCN3CCC4(CC4)[C@H](O)C3)CO[C@@]2(C)CN1C(=O)Nc1ccc(Cl)c(Cl)c1 [Example 21, (3S,6S,8aS)-3-[3-((S)-4-Hydroxy-6-aza-spiro[2.5]oct-6-yl)-propyl]-6,8a-dimethyl-5-oxo-hexahydro-oxazolo[3,2-a]pyrazine-7-carboxylic acid (3,4-dichloro-phenyl)-amide]
2.9 nM | C[C@H]1C(=O)N2[C@@H](CCCN3CCC4(CC4)[C@H](O)C3)CO[C@H]2CN1C(=O)Nc1ccc(Cl)c(Cl)c1 [Example 17, (3S,6S,8aS)-3-[3-((S)-4-Hydroxy-6-aza-spiro[2.5]oct-6-yl)-propyl]-6-methyl-5-oxo-hexahydro-oxazolo[3,2-a]pyrazine-7-carboxylic acid (3,4-dichloro-phenyl)-amide]
86.9 nM | C[C@H]1C(=O)N2[C@@H](CCC(=O)N3CCC4(CC4)[C@H](O)C3)COC[C@H]2CN1C(=O)Nc1ccc(Cl)c(Cl)c1 [Example 51, (4S,7S,9aR)-4-[3-((S)-4-Hydroxy-6-aza-spiro[2.5]oct-6-yl)-3-oxo-propyl]-7-methyl-6-oxo-hexahydro-pyrazino[2,1-c][1,4]oxazine-8-carboxylic acid (3,4-dichloro-phenyl)-amide]
220 nM | C[C@H]1C(=O)N2[C@@H](CCC(=O)N3CCC4(CC4)[C@H](O)C3)CCC[C@H]2CN1C(=O)/C=C/c1ccc(F)c(Cl)c1 [Example 62, (3S,6R,9aS)-2-[(E)-3-(3-Chloro-4-fluoro-phenyl)-acryloyl]-6-[3-((S)-4-hydroxy-6-aza-spiro[2.5]oct-6-yl)-3-oxo-propyl]-3-methyl-octahydro-pyrido[1,2-a]pyrazin-4-one]
8.8 nM | C[C@H]1C(=O)N2[C@H](CCN3CCC4(CC4)[C@H](O)C3)CCC[C@@H]2CN1C(=O)Nc1ccc(Cl)c(Cl)c1 (racemic) [Example 38, (3S,9aR)-6-[2-((S)-4-Hydroxy-6-aza-spiro[2.5]oct-6-yl)-ethyl]-3-methyl-4-oxo-octahydro-pyrido[1,2-a]pyrazine-2-carboxylic acid (3,4-dichloro-phenyl)-amide]
3 nM | C[C@H]1C(=O)N2[C@@H](CCN3CCC4(CC4)[C@H](O)C3)CCC[C@H]2CN1C(=O)Nc1cccc(Cl)c1 [Example 66, (3S,6R,9aS)-6-[2-((S)-4-Hydroxy-6-aza-spiro[2.5]oct-6-yl)-ethyl]-3-methyl-4-oxo-octahydro-pyrido[1,2-a]pyrazine-2-carboxylic acid (3-chloro-phenyl)-amide]
10.8 nM | C[C@H]1C(=O)N2[C@@H](CCC(=O)N3CCC4(CC4)[C@H](O)C3)CCC[C@H]2CN1C(=O)Nc1ccc(Cl)c(Cl)c1 [Example 63, (3S,6R,9aS)-6-[3-((S)-4-Hydroxy-6-aza-spiro[2.5]oct-6-yl)-3-oxo-propyl]-3-methyl-4-oxo-octahydro-pyrido[1,2-a]pyrazine-2-carboxylic acid (3,4-dichloro-phenyl)-amide]
